Here are results for six substances from PMC8951016, “Computational Design and Biological Evaluation of Analogs of Lupin Peptide P5 Endowed with Dual PCSK9/HMG-CoAR Inhibiting Activity” (Pharmaceutics, 2022).

The target of assay [1] is T1, PCSK9-LDLR (Homo sapiens, UniProt Q8NBP7).
T1 construct: purchased CycLex Co., Nagano, Japan (CircuLex)
The conditions noted are these: cited from earlier work; for impairment of PCSK9-LDLR binding vs control: fixed concentration of 100 µM.

In assay [2] the target is T2, HMG-CoAR (catalytic domain) (Homo sapiens, UniProt P04035).
T2 construct: finally the HMG-CoAR (cata- lytic domain) (2 µL); purchased Sigma-Aldrich
T2 sequence (P04035 426-888 limits assumed): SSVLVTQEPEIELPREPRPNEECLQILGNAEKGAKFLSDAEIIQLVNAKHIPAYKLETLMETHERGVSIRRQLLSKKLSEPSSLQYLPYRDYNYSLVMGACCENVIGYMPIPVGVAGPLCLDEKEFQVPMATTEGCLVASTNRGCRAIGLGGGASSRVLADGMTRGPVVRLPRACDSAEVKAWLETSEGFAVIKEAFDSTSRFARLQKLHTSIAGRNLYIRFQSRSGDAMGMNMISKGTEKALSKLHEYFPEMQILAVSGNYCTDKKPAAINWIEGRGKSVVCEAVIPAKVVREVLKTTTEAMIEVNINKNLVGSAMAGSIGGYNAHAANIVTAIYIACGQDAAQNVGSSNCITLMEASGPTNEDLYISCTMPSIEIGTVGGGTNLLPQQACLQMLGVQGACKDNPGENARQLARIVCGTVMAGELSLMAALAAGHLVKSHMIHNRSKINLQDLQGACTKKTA
The conditions noted are these: metabolite; read-out: IC50, HMG-CoAR activity (P5-met); cited from earlier work.

For another assay, the system named is LDLR. Also on record: method as in 3 sources, ref 48 = [48]; doi:10.1111/jfbc.12757; 48. Lammi C. Zanoni C. Arnoldi A. Aiello G. […] (P3), a peptide from lupin protein, absorbed by Caco-2 cells, modulates cholesterol metabolism in HepG2 cells via SREBP-1 activation J. Food B ||| ref 22 = [22]; doi:10.1016/j.jff.2017.02.009; 22. Zanoni C. Aiello G. Arnoldi A. Lammi C. Investigations on the hypocholesterolaemic activity of […] and LTFPGSAED, two peptides from lupin β-conglutin: Focus on LDLR and PCSK9 pathways J. Fu ||| ref 24 = [24]; PMID 33808034; doi:10.3390/nu13030863; 24. Lammi C. Aiello G. Bollati C. Li J. Bartolomei M. Ranaldi G. Ferruzza S. Fassi E.M.A. Grazioso G. Sambuy Y. Trans-Epithelial Transport, Metabolism, and Biological Activity Assessment of the Multi-. The conditions noted are these: cellular level, through modulation of SREBP-2; cited from earlier work.

The test system of another assay is PCSK9. The arrangement: method as in 3 sources, ref 49 = [49]; PMID 35011066; doi:10.3390/nu14010193; 49. Macchi C. Greco M.F. Ferri N. Magni P. Arnoldi A. Corsini A. Sirtori C.R. Ruscica M. Lammi C. Impact of Soy β-Conglycinin Peptides on PCSK9 Protein Expression in HepG2 Cells Nutrients 2021 14 193 ||| ref 22 = [22]; doi:10.1016/j.jff.2017.02.009; 22. Zanoni C. Aiello G. Arnoldi A. Lammi C. Investigations on the hypocholesterolaemic activity of […] and LTFPGSAED, two peptides from lupin β-conglutin: Focus on LDLR and PCSK9 pathways J. Fu ||| ref 24 = [24]; PMID 33808034; doi:10.3390/nu13030863; 24. Lammi C. Aiello G. Bollati C. Li J. Bartolomei M. Ranaldi G. Ferruzza S. Fassi E.M.A. Grazioso G. Sambuy Y. Trans-Epithelial Transport, Metabolism, and Biological Activity Assessment of the Multi-. The conditions noted are these: cellular level, through modulation of HNF-1α; cited from earlier work.

Assay [3] has as its target T2, HMG-CoAR (catalytic domain). Briefly: HMG-CoAR activity assay. The assay is classed as biochemical. The conditions noted are these: 10–500 µM, 37 °C, NADPH oxidation, absorbance 340 nm at 0 and 10 min; four independent experiments in duplicate. On the procedure:
The experiments were carried out following the manufacturer instructions and optimized protocol. See Supplementary Materials for further details. […]
cLex Co., Nagano, Japan). The peptides (P5, P5-Best, P-H6A, and P5-S7A) were synthe-sized by the company GeneScript (Piscataway, NJ, USA) at >95% purity. The antibody against HMG-CoAR was bought from Abcam (Cambridge, UK). Phenylmethanesulfonyl fluoride (PMSF), Na-orthovanadate inhibitors, and the antibodies against rabbit Ig-horse-radish peroxidase (HRP), mouse Ig-HRP, and SREBP-2 (which recognizes epitope located in a region between 833–1141 and bands at about 132 kDa) were purchased from Santa Cruz Biotechnology Inc. (Santa Cruz, CA, USA). The antibodies against hepatocyte nu-clear factor 1-alpha (HNF1-alpha) and PCSK9 were bought from GeneTex (Irvine, CA, USA). The inhibitor cocktail Complete Midi was from Roche (Basel, Switzerland). Mini protean TGX pre-cast gel 7.5% and Mini nitrocellulose Transfer Packs were purchased from BioRad (Hercules, CA, USA).
HepG2 Cell Culture Conditions and Treatment. The HepG2 cell line was bought from ATCC (HB-8065, ATCC from LGC Standards, Milan, Italy) and was cultured in DMEM high glucose with stable L-glutamine, supplemented with 10% FBS, 100 U/mL penicillin, 100 µg/mL streptomycin (complete growth medium) with incubation at 37 °C […]
HMG-CoAR Aactivity Assay. The experiments were carried out following the man-ufacturer instructions and optimized protocol. The assay buffer, NADPH, substrate solution, and HMG-CoAR were provided in the HMG-CoAR Assay Kit (Sigma Aldrich SRL, Milan, Italy). […] Subsequently, the samples were mixed and the absorbance at 340 nm read by the microplate reader Synergy H1 (Winooski, VT, USA) at time 0 and 10 min. The HMG-CoAR-dependent oxidation of NADPH and the inhibition properties of peptides were measured by absorbance reduction, which is directly proportional to enzyme activ- […]
(§1) In Vitro PCSK9-LDLR Binding Assay. […] The reaction was stopped with 2.0 M sulfuric acid and the absorbance at 450nm was measured using the Synergy H1 fluorescent plate reader […]

Assay [4] concerns the target T1, PCSK9-LDLR. Briefly: In vitro PCSK9-LDLR binding assay. As to conditions: 0.1–100 µM, LDLR-AB coated plate, 2 h at RT, absorbance 450 nm; four independent experiments in duplicate. As for the experimental part: Peptides P5 and P5 analogs (0.1–100 µM) were tested using the in vitro PCSK9-LDLR binding assay (CycLex Co., Nagano, Japan) following the manufacture instructions and conditions already optimized. Further details are provided in Supplementary Materials. […]
cLex Co., Nagano, Japan). The peptides (P5, P5-Best, P-H6A, and P5-S7A) were synthe-sized by the company GeneScript (Piscataway, NJ, USA) at >95% purity. The antibody against HMG-CoAR was bought from Abcam (Cambridge, UK). Phenylmethanesulfonyl fluoride (PMSF), Na-orthovanadate inhibitors, and the antibodies against rabbit Ig-horse-radish peroxidase (HRP), mouse Ig-HRP, and SREBP-2 (which recognizes epitope located in a region between 833–1141 and bands at about 132 kDa) were purchased from Santa Cruz Biotechnology Inc. (Santa Cruz, CA, USA). […]
HMG-CoAR Aactivity Assay. […] Subsequently, the samples were mixed and the absorbance at 340 nm read by the microplate reader Synergy H1 (Winooski, VT, USA) at time 0 and 10 min. The HMG-CoAR-dependent oxidation of NADPH and the inhibition properties of peptides were measured by absorbance reduction, which is directly proportional to enzyme activ- […]
as §1

The mark [5] stands for this setting: read-out: IC50, PCSK9-LDLR binding (Pep2-8 analogs).

Like-named read-outs stand apart in the source and are kept apart here. No end group written: not given here.

T1 sequence (Q8NBP7 153-692): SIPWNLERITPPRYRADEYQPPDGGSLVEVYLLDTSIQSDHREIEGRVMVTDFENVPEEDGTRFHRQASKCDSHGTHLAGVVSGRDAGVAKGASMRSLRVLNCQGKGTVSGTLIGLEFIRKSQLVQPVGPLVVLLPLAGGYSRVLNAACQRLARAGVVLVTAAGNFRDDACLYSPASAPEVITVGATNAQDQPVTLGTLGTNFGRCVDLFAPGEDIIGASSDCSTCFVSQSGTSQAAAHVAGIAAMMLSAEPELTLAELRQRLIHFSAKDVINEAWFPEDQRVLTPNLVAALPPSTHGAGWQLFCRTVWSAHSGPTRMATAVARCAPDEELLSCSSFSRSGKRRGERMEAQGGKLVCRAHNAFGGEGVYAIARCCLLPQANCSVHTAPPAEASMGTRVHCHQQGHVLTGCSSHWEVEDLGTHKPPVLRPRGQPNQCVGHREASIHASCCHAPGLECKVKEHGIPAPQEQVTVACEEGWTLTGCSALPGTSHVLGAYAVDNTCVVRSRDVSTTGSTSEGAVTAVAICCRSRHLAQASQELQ
T1 sequence (Q8NBP7 31-152 partner limits assumed): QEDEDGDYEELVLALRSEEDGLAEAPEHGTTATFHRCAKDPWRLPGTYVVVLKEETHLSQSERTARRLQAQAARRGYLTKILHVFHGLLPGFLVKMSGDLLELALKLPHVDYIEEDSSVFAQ

The term IC50 denotes the concentration that inhibits the measured activity by half. As to “LPKHSDAD [Peptide P5-met, breakdown fragment (metabolite) of P5]”, the IC50 was 1.7 µM with PCSK9-LDLR [1] (metabolite, read-out: IC50, PCSK9-LDLR binding (P5-met)) and 175 µM in assay [2]. For the same substance, the “LDLR level (P5-met, words)” value in the assay on LDLR is “improves the LDLR”. For the same substance, the “PCSK9 level (P5-met, words)” value with PCSK9 is “reduces PCSK9 levels”.

On to “[T4R,W12Y]Pep2-8: analog of peptide Pep2-8 (TVFRSWEEYLDYV)”, for which, in the assay with PCSK9-LDLR [1], the “impairment of PCSK9-LDLR binding vs control” value is recorded as −93.0%. Besides, in the assay with PCSK9-LDLR [1] (setting [5]), the IC50 was 14.5 ± 1.3 µM.

For LYLPKHSDRD [Peptide P5-Best], the IC50 in assay [3] stood at 88.9 µM.

On to LILPKASDAD [Peptide P5-H6A], for which the 50% inhibitory concentration (IC50) on PCSK9-LDLR [4] amounted to 9 µM; in assay [3], 74.4 µM.

“[Y9A]Pep2-8: analog of peptide Pep2-8 (TVFTSWEEALDWV)”: in the assay with PCSK9-LDLR [1], the “impairment of PCSK9-LDLR binding vs control” value was −69.8%. Also, the IC50 in the assay with PCSK9-LDLR [1] (setting [5]) was 27.1 ± 1.2 µM.

On to LILPKHADAD [Peptide P5-S7A], for which the IC50 on PCSK9-LDLR [4] was 1.45 µM; in assay [3], 73.8 µM.
